According to patent publication EP1430019B1, “SPHINGOLIPIDS” (priority 2001, dated 2003):
Blank lines part the entries; values can stand above or below the molecule they belong to.

How the values were obtained:
Bod 3-SPM = assay: Sphingolipid metabolism from Bodipy-C3-ceramide in MCF-NCi cells: Bod3-SPM; type: cell-based; conditions: Homo sapiens, 3 hours, 2.5 µM Bodipy-C3-ceramide, read-out: Bod 3-SPM (IC50 for reduction)
Experimental: (§1) In order to examine the effect of the different compounds on sphingolipids metabolism, different cell lines were incubated with increasing concentrations of different compounds of the invention in the presence of 2.5 µM Bodipy-C3-ceramide that was added to the culture medium as a solution in dimethylsulfoxide (not exceeding 0.1% DMSO of the final volium). After 3 hours, cells and medium were collected and centrifuged. Cells were next extracted with chloroform- methanol containing 2% acetic acid 1:1 (by volume) and the medium was shaken with an equal volume of chloroform-methanol, 1:1 (by volume). The phases were separated by centrifugation and the lower chloroform phase was collected. The solvents were evaporated and applied to thin layer chromatography silica gel plates (Whatman 4865-821) with a concentrating zone.
(§2) Plates were developed as follows: For medium: in chloroform-methanol-H2O, 75:25:4 by volume. For cells: plates were first developed with chloroform-methanol, 9:1, then dried and re-run in chloroform-methanol: H2O, 65:35:4.
(§3) Standards of Bodipy-C3-ceramide: Bodipy-C3-glucosylceramide (Bod3-GC) and Bodipy C3 sphingomyelin (Bod3-SPM) were used as markers. The fluorescence of the respective Bod3-SPM and Bod3-GC spots was quantified using a Fuji FLA-2000 scanner.

MCF7-AdrR = assay: Cell viability by total cell protein quantity, MCF7-AdrR; type: cell-based; conditions: Homo sapiens, 48 h, two days
Experimental: (§4) The effect of different compounds of the invention on cell viability was next evaluated by measuring total cell protein quantity. Different cell lines were incubated for two days in the presence of increasing concentrations of the different compounds of the present invention.

U937 cells = assay: Apoptosis in U937 cells, DEVDase/caspase 3 activity kit; type: cell-based; conditions: Homo sapiens, U-937; U937, 5 µM, 24 hours; read-out: number of apoptotic cells relative to control cells
Experimental: Myeloid, leukemic U937 cells were incubated for 24 hours in the absence or in the presence of 5 µM AD-2672 and AD-2665. Cells were then collected and the percent of apoptotic cells was determined using a kit quantifying the DEVDase, caspase 3 activity. The number of apoptotic cells incubated with AD-2672 exceeded 6-fold those in the control cells. Cells incubated with AD-2665 exceeded 2.8-fold those in the control cells.

Bod 3-GC = assay: Sphingolipid metabolism from Bodipy-C3-ceramide in MCF-NCi cells: Bod3-GC; type: cell-based; conditions: Homo sapiens, 3 hours, 2.5 µM Bodipy-C3-ceramide, read-out: Bod 3-GC (IC50 for reduction)
Experimental: as §1, §2, §3

Bod3-SPM [1] = assay: Sphingolipid metabolism from Bodipy-C3-ceramide in HL60 cells: Bod3-SPM; type: cell-based, Human; conditions: for IC50: Homo sapiens, HL-60, 3 h, HL60, 3 hours, 2.5 µM Bodipy-C3-ceramide, cell + medium, read-out: Bod 3-SPM (IC50 for reduction); for inhibition of Bod3-SPM (fluorescent image): HL60, 10 µM
Experimental: as §1, §2, §3

MCF7-NCi = assay: Cell viability by total cell protein quantity, MCF7-NCi; type: cell-based; conditions: Homo sapiens, 48 h, two days
Experimental: as §4

HL60 cells [2] = assay: HL60 cell viability by total protein content (Bradford); type: cell-based, Human; conditions: for IC50: HL60, 2 days
Experimental: The effect of the AD-2646 compound on cell viability was further supported when the total protein content was quantified. HL60 cells were incubated as described above, with different concentrations of AD-2646. After 2 days the cells were collected, washed twice with saline, dispersed and following a short pulsing with a probe-sonicator their protein content was quantified by the Bradford procedure. Similarly to the viable cell counting results, the protein measurements indicated an IC50 value of 5 µM.
To analyze whether the AD-2646 compound may mediate its effect on cell viability and on total protein content, in cooperation with other compounds, the cooperative effect of this compound and Taxol was next evaluated. HL60 cells were incubated for two days with 4 µM AD2646 in the presence or absence of 2 ng Taxol. […]
as §4

sphingomyelinases = assay: Sphingomyelinase inhibition, HL60 cell sonicate (Table 4, acid or neutral not stated); type: biochemical, Human
Experimental: N-hexyl-sphingosyl phosphorylcholine (AD-2144) was tested as to its inhibitory effect on sphingomyelinases, acidic (i.e., with an optimum at about pH 5) or neutral (with a pH optimum at about pH 7.4). For this purpose a sonicate of HL60 leukemic cells was used as enzyme source. Increasing concentrations of AD-2144 were dispersed by a mixture of fluorescent and non-fluorescent sphingomyelin (Bodipy-C12-SPM:SPM, 1:19), buffer and 0.25% Triton-X100 in a volume of 100 µl. For acid sphingomyelinase 0.4M acetate buffer pH 5.0 was used; for neutral sphingomyelinase 0.2M Tris buffer, pH 7.4 and 5 mM magnesium chloride. To 100 µl of these dispersions, 100 µl of HL60 cells sonicate were added. Incubation was 2-3 hours after which 0.8 ml of chloroform:methanol 2:1 were added, stirred and the lower, chloroform phase was collected, dried and applied to a thin layer chromatography plate. The plate was developed in a mixture of chloroform and methanol, 87:3. The fluorescence of the product, i.e., Bodipy-C12-ceramide, was quantified.
For acid sphingomyelinase as well as for neutral spingomyelinase: at 300 µM of AD-2144 there was a reduction of over 60% in Bodipy-C12-ceramide. […]

Bod3-GC = molecular target: T1, Bod3-GC (Homo sapiens, UniProt Q16739); assay: Sphingolipid metabolism from Bodipy-C3-ceramide in HL60 cells: Bod3-GC; type: cell-based; conditions: HL60, 10 µM, Fig. 6
T1 sequence (Q16739 1-394): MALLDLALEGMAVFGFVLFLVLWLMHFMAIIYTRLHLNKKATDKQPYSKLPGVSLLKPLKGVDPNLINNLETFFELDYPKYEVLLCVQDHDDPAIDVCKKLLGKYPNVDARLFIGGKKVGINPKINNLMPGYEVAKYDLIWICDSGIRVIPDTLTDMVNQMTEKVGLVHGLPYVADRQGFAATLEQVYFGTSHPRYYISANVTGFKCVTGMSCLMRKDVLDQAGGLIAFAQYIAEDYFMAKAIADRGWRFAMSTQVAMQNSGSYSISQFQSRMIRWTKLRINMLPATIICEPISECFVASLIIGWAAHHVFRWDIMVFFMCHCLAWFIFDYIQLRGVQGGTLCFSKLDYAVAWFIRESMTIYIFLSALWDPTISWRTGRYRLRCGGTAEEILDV
Experimental: as §1, §2, §3

Bod3-SPM [3] = assay: Sphingolipid metabolism from Bodipy-C3-ceramide in TSU-PR1 cells: Bod3-SPM; type: cell-based; conditions: Homo sapiens; TSU-PR1, 3 hours, Fig. 5; read-out: reduction of Bod3-SPM, IC50
Experimental: as §1, §2, §3
The effect of AD-2646 on sphingolipid metabolism was further examined using TSU-PR1 prostate cancer cells. […]

HL60 cells [4] = assay: HL60 cell viability, viable cell count with trypan blue; type: cell-based, Human
Experimental: The effect of AD-2646 on cell viability was analyzed by measuring cell mortality (viable cell count) and/or total protein quantity. HL60 cells grown in RMPI plus 10% fetal calf serum, were incubated with increasing concentrations of (2R,3R)-2-(N-tetradecylamine)-1-(4-nitrophenyl)-1,3-propanediol (AD-2646) in 6- or 24-well dishes. […] After 2 days the cells were collected, washed twice with saline, treated with trypan blue and the number of living (non-blue) cells was counted. Fig. 1 indicates an IC50 value of 5 µM.
Kinetic of the observed killing effect of the AD-2646 compound was next examined. HL60 cells were incubated with 40 µM of AD-2646 for 1, 3, 5 and 7 hours. Already after 1 hour a reduction of 60% of the viable cell number was observed.

TSU-PR1 cells = assay: TSU-PR1 cytotoxicity by protein content; type: cell-based; conditions: Homo sapiens, 48 h; TSU-PR1, two days, Fig. 2
Experimental: In order to evaluate the generality of AD-2646 compound effect on cell viability, other cell lines were subjected to the same procedures disclosed herein above.
TSU-PR1 cells (prostate cancer cells) were incubated for two days with increasing concentrations of AD-2646. The protein content measurements shown in Fig. 2 indicate that the cells were killed with an IC50 of 6-7 µM.

Swiss mice = assay: In vivo toxicity, mice viability
Experimental: Six groups, each of 5 Swiss mice were injected, intra-peritoneally with solutions of AD-2646, at varying concentrations, each in a volume of 100 µl. Injections were performed on days 1, 2, 3, 4, and mice viability was tested (Table 5).

[5] = system: Leishmania major promastigote; assay: Leishmania major promastigote cell count; type: cell-based; conditions: promastigotes, 3 h, 27°C, cell counting; read-out: IC50 for cell reduction
Experimental: 2 × 10^5 Leishmania major promastigote cell, each in a volume of 100 µl were added to 100 µl medium (RPMI 1640 culture medium complemented with 20% FCS, 1% penicillin and 1% streptomycin) in 96-well plates containing zero and increasing concentrations of (2S,3R)-2-N-aminohexyl-1-(4-N-hexylamiuophenyl)-1,3-propanediol (AD-2663) in 2-fold serial dilution. After incubation period (3 h, 27°C) the number of cells was determined by counting on aliquot from each well on a Neulander cell counter under a microscope. The IC50 for cell reduction was 7 µM.

Molecule: (2R, 3S)-2-BOC-amino-1-[4-N-(dodecanoyl-12-N-BOC-amine)-phenyl)-1,3-propanediol [AD-2620]
IC50 (HL60 cells [2]): 3 µM

Molecule: CCCCCCCCCCCCC/C=C/[C@H](O)[C@@H](COP(=O)([O-])OCC[N+](C)(C)C)NCCCCCC [AD-2144, N-hexyl-sphingosyl phosphorylcholine]
% reduction in Bodipy-C12-ceramide (sphingomyelinases; AD-2144 concentration 50µl): 30% | % reduction in Bodipy-C12-ceramide (sphingomyelinases; AD-2144 concentration 100µl): 44% | % reduction in Bodipy-C12-ceramide (sphingomyelinases; AD-2144 concentration 150µl): 65% | % reduction in Bodipy-C12-ceramide (sphingomyelinases; AD-2144 concentration 300µl): 82%

Molecule: CCCCCCCCCCCC(=O)Nc1ccc([C@H](O)[C@@H](N)CO)cc1 [AD-2674]
reduction of the level of Bod3-GC (fluorescent image) (Bod3-GC): much stronger reduction of the level of Bod3-GC | inhibition of Bod3-SPM (fluorescent image) (Bod3-SPM [1]; Fig. 6): low inhibition of Bod3-SPM

Molecule: CCCCCCCCCCCCCCN[C@H](CO)[C@H](O)c1ccc([N+](=O)[O-])cc1 [AD-2646, (2R, 3R)-2-(N-tetradecylamine)-1-(4-nitrophenyl)-1,3-propanediol]
IC50 (Bod3-SPM [3]): ~5 µM | Protein content (HL60 cells [2]; HL60, two days, 4 µM AD2646 alone): 174 µg | IC50 (HL60 cells [2]; Homo sapiens, HL-60, 48 h): 5 µM | reduction of the viable cell number (HL60 cells [4]; HL60, 40 µM, after 1 hour): 60% | IC50 (HL60 cells [4]; Homo sapiens, HL-60, 48 h, HL60, 2 days, trypan blue, Fig. 1): 5 µM | IC50 (TSU-PR1 cells): 6 to 7 µM | No. of mice in each day (Swiss mice; 1mg/kg intra-peritoneally on days 1-4, group of 5, day 1): 5 | No. of mice in each day (Swiss mice; 1mg/kg intra-peritoneally on days 1-4, group of 5, day 2): 5 | No. of mice in each day (Swiss mice; 1mg/kg intra-peritoneally on days 1-4, group of 5, day 3): 5 | No. of mice in each day (Swiss mice; 1mg/kg intra-peritoneally on days 1-4, group of 5, day 4): 5 | No. of mice in each day (Swiss mice; 1mg/kg intra-peritoneally on days 1-4, group of 5, day 5): 5 | No. of mice in each day (Swiss mice; 1mg/kg intra-peritoneally on days 1-4, group of 5, day 6): 5 | No. of mice in each day (Swiss mice; 5mg/kg intra-peritoneally on days 1-4, group of 5, day 1): 5 | No. of mice in each day (Swiss mice; 5mg/kg intra-peritoneally on days 1-4, group of 5, day 2): 5 | No. of mice in each day (Swiss mice; 5mg/kg intra-peritoneally on days 1-4, group of 5, day 3): 5 | No. of mice in each day (Swiss mice; 5mg/kg intra-peritoneally on days 1-4, group of 5, day 4): 5 | No. of mice in each day (Swiss mice; 5mg/kg intra-peritoneally on days 1-4, group of 5, day 5): 5 | No. of mice in each day (Swiss mice; 5mg/kg intra-peritoneally on days 1-4, group of 5, day 6): 5 | IC50 (Bod3-SPM [1]): ~6 µM

Molecule: CCCCCCNc1ccc([C@@H](O)[C@H](CO)NCCCCCC)cc1 [AD-2663, (2S,3R)-2-N-aminohexyl-1-(4-N-hexylamiuophenyl)-1,3-propanediol]
IC50 [5]: 7 µM

The next lines start with results.

IC50 (Bod 3-SPM): 7 µM | IC50 (MCF7-AdrR): 7 µM | IC50 (Bod 3-GC): 10 µM | IC50 (Bod3-SPM [1]): 4 µM | IC50 (MCF7-NCi): 3 µM
Molecule: CCCCCCNc1ccc([C@@H](O)[C@@H](CO)NCCCCCC)cc1 [AD-2665, (2R,3R)-2-(N-hexylamine)-1-(4-N-hexylaminophenyl)-1,3-propanediol]
fold induction at 5 µM (U937 cells): 2.8

IC50 (HL60 cells [2]; Homo sapiens, HL-60, 48 h): 7.5 µM | IC50 (Bod3-SPM [1]): 6 µM
Molecule: CCCCCCCCCCCC(=O)Nc1ccc([C@@H](O)[C@H](N)CO)cc1 [AD-2673]
reduction of the level of Bod3-GC (fluorescent image) (Bod3-GC): much stronger reduction of the level of Bod3-GC | inhibition of Bod3-SPM (fluorescent image) (Bod3-SPM [1]; Fig. 6): low inhibition of Bod3-SPM

IC50 (Bod3-SPM [1]): 4 µM
Molecule: CCCCCCCCCCCCCCN[C@H](CO)[C@H](O)c1ccc(N)cc1 [AD-2672, (2R,3R)-2-(N-tetradecylamine)-1-(4-aminophenyl)-1,3-propanediol]
fold induction at 5 µM (U937 cells): 6 | level of Bod3-SPM (fluorescent image) (Bod3-SPM [1]; HL60, 5 and 10 µM, Fig. 6): strongly reduces the level of Bod3-SPM
